Where two headings read alike, the source gives them in different places.
Assays:
[1] = Pharmacokinetics IV/PO in dogs; assay type: in vivo, beagle dogs; conditions: for AUC(0-t): read-out: AUC0–24h
Method: Pharmacokinetics profile of KMS88009 was obtained using ICR mice, SD rats, beagle dogs and cynomolgus monkeys. Animals were fasted overnight before KMS88009 administration. Mice were divided into 2 groups to receive KMS88009 as a single dose of 2.1 mg/kg intravenous (IV) bolus or 10 mg/kg orally (PO) by gavage. Additionally, KMS88009 was administered orally to estimate the BBB penetration in mice (10, 30 and 100 mg/kg). […] Dog received KMS88009 either as an IV bolus (1 mg/kg) via the great saphenous vein or by oral gavage (4 mg/kg). KMS88009 was administrated to monkeys as an IV bolus (1 mg/kg) via the femoral vein or by oral gavage (4 mg/kg). Vehicle for IV and PO administration was DMSO/tween-20/saline (3.3∶19.8∶[…]). […]. Brain samples were weighed and Daunce-homogenized in 10-fold volume of ice-chilled 4% bovine serum albumin (BSA) solution at room temperature. Plasma and brain homogenates were kept frozen at −70°C until analysis. The levels of KMS88009 were determined by the LC-MS/MS analysis. Pharmacokinetic parameters, time to the maximum concentration (Tmax), maximum concentration (Cmax), elimination half-life (T1/2), volume of distribution (Vd), clearance (Cl) and mean residual time (MRT), of KMS88009 were calculated based on plasma concentration-time data by a non-compartmental method using WinNonlin Version 5.2 (Pharsight, USA). Area under the curve from 0 to 24 hr (AUC0-24h) and area under the curve from 0 to infinity (AUCINF) were obtained by linear and log linear trapezoidal summations.

[2] = Metabolic stability in liver microsomes; assay type: in vitro ADME; conditions: rat liver microsomes
CYP2C19 = target: T1, CYP2C19 (Homo sapiens, UniProt P33261); experiment: CYP inhibition assay (Crespi, fluorescent probe); assay type: in vitro ADME
T1 construct: five CYP isozymes (CYP3A4, 1A2, 2C9, 2C19, and 2D6) from human LM; from tissue; host or cells: human liver microsomes
Method: (§1) Cytochrome P450 (CYP) inhibition assay was carried out according to the principle of the Crespi assay. Fluorescent probe substrates (BD Gentest, USA) used for each CYP isozyme were: 3-cyano-7-ethoxycoumarin for CYP1A2 and CYP2C19, 7-benzyloxy-trifluoromethylcoumarin for CYP3A4, 7-methoxy-4-trifluoromethylcoumarin for CYP2C9 and 3-[2-(N,N-diethyl-N-methylamino)ethyl]-7-methoxy-4-methyl-coumarin for CYP2D6. […] All reactions were stopped by addition of 75 µL of 0.1 M tris in acetonitrile and analyzed by an LC-MS/MS product ion monitoring method on Agilent 1200 HPLC (Agilent, USA) and API-5000 mass spectrometer (Canada). IC50 value was calculated using SigmaPlot 10.0 (Systat Software Inc., USA).

CYP1A2 = target: T2, CYP1A2 (Homo sapiens, UniProt P05177); experiment: CYP inhibition assay (Crespi, fluorescent probe); assay type: in vitro ADME
T2 construct: five CYP isozymes (CYP3A4, 1A2, 2C9, 2C19, and 2D6) from human LM; from tissue; host or cells: human liver microsomes
T2 sequence (P05177 1-516): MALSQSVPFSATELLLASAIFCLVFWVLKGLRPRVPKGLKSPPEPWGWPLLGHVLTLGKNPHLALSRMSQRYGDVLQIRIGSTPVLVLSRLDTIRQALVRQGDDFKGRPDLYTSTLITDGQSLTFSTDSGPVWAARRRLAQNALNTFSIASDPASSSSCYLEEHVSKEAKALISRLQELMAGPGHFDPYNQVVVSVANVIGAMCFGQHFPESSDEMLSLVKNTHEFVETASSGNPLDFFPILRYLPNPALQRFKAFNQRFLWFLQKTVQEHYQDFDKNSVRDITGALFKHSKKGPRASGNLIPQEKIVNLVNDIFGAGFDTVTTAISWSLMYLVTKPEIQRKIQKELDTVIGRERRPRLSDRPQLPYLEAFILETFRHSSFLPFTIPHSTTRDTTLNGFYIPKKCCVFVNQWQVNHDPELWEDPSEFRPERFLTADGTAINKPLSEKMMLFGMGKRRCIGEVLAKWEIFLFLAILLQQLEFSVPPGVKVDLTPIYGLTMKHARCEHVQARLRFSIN
Method: as §1

CYP3A4 = target: T3, CYP3A4 (Homo sapiens, UniProt P08684); experiment: CYP inhibition assay (Crespi, fluorescent probe); assay type: in vitro ADME
T3 construct: five CYP isozymes (CYP3A4, 1A2, 2C9, 2C19, and 2D6) from human LM; from tissue; host or cells: human liver microsomes
Method: as §1

CYP2C9 = target: T4, CYP2C9 (Homo sapiens, UniProt P11712); experiment: CYP inhibition assay (Crespi, fluorescent probe); assay type: in vitro ADME
T4 construct: five CYP isozymes (CYP3A4, 1A2, 2C9, 2C19, and 2D6) from human LM; from tissue; host or cells: human liver microsomes
Method: as §1

CYP2D6 = target: T5, CYP2D6 (Homo sapiens, UniProt P10635); experiment: CYP inhibition assay (Crespi, fluorescent probe); assay type: in vitro ADME
T5 construct: five CYP isozymes (CYP3A4, 1A2, 2C9, 2C19, and 2D6) from human LM; from tissue; host or cells: human liver microsomes
Method: as §1

T3 sequence (P08684 whole entry): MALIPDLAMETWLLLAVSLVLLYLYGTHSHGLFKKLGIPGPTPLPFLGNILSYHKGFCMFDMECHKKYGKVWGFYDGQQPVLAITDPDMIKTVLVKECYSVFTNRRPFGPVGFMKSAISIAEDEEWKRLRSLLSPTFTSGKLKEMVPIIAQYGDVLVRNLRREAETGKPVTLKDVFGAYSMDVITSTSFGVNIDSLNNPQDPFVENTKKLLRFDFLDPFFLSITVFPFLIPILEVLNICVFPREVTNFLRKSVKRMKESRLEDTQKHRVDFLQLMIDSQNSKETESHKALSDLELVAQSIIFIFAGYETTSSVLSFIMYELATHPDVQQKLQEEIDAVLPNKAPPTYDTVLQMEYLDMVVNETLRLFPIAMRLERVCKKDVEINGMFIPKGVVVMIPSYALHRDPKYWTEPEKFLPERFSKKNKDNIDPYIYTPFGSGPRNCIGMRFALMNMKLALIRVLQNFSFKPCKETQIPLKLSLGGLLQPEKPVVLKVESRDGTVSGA
T5 sequence (P10635 whole entry): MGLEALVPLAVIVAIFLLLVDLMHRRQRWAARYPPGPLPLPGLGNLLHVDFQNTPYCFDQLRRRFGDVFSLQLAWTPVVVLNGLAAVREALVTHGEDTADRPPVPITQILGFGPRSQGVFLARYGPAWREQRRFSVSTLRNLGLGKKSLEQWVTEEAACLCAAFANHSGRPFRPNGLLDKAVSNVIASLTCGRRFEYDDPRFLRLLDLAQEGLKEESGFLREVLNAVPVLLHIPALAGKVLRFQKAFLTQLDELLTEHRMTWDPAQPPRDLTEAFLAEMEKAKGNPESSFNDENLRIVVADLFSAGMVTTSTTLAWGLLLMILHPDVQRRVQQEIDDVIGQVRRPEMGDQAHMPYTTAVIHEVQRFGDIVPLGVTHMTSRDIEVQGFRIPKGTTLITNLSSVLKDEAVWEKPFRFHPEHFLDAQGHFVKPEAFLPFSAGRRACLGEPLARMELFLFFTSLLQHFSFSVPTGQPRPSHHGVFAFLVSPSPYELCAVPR
T1 sequence (P33261 whole entry): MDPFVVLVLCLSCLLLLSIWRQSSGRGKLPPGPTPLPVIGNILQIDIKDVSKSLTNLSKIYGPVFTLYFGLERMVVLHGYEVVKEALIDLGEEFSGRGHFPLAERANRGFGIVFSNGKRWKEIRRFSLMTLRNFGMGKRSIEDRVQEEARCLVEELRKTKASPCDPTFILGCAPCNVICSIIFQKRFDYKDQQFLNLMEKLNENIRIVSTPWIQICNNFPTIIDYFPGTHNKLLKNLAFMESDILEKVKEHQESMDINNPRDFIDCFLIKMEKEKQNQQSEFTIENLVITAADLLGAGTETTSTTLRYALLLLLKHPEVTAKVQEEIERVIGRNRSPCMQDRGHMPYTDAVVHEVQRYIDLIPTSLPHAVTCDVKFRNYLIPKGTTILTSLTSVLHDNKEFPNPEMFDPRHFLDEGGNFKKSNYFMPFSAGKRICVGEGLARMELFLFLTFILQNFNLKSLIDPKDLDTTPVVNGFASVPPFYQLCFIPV
T4 sequence (P11712 whole entry): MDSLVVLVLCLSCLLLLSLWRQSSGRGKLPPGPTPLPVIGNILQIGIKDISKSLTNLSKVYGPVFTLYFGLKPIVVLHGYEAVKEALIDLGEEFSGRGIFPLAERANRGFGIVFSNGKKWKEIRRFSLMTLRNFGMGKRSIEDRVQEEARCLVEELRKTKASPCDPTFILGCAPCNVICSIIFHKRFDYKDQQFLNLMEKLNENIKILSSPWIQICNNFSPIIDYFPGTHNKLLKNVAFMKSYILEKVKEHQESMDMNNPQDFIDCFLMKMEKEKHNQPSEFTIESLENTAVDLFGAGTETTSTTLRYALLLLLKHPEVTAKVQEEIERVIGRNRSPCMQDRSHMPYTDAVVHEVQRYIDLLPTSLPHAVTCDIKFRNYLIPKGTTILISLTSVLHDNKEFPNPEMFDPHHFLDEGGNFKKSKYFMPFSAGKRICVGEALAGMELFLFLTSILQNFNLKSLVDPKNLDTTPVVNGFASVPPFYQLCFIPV

For COc1ccc2cc(C=Cc3ccc(N(C)C)cc3)oc2c1 [KMS88009, 6-methoxy-2-(4-dimethylaminostyryl) benzofuran], the MRT last ([1]; beagle, plasma, dog IV 1 mg/kg) was 2.9 ± 0.6 h, the Vd ([1]; beagle, plasma, dog IV 1 mg/kg) was 115 ± 61.1 L/kg and the clearance ([1]; beagle, plasma, dog IV 1 mg/kg) was 158 mL/min/kg. For the same molecule, the half-life ([1]; beagle, plasma, dog IV 1 mg/kg) was 8.1 ± 1.4 h, the MRT last ([1]; beagle, plasma, dog PO 4 mg/kg) was 3.8 ± 0.4 h and the Tmax ([1]; beagle, plasma, dog PO 4 mg/kg) was 1 h. The half-life ([1]; beagle, plasma, dog PO 4 mg/kg) was 8.8 ± 2.5 h, the AUC(0-inf) ([1]; beagle, dog IV 1 mg/kg, plasma) was 117 ± 43.6 ng·h/mL and the AUC(0-t) ([1]; beagle, dog IV 1 mg/kg, plasma) was 112 ± 43.4 ng·h/mL. For the same molecule, the AUC(0-inf) ([1]; beagle, dog PO 4 mg/kg, plasma) was 103 ± 13 ng·h/mL, the Cmax ([1]; beagle, dog PO 4 mg/kg, plasma) was 32.8 ± 9.8 ng/mL and the AUC(0-t) ([1]; beagle, dog PO 4 mg/kg, plasma) was 97.1 ± 14 ng·h/mL. For the same molecule, the BA ([1]; dog PO 4 mg/kg vs IV 1 mg/kg) was 21.6%, the half-life at 5 µM [2] was 0.9733 ± 0.00667 h and the remaining at 1 h, 5 µM ([2]; read-out: Remaining % of parent molecule at 60 min.) was 61.2 ± 0.2%. The IC50 (CYP2C19) was 2.51 ± 0.21 µM, the IC50 (CYP1A2) was 0.74 ± 0.12 µM and the IC50 (CYP3A4) was 9.84 ± 0.15 µM. For the same molecule, the IC50 (CYP2C9) was 22.4 ± 1.25 µM and the IC50 (CYP2D6) was greater than 50 µM.
